Test results taken from patent US20040229933A1, “Treatment of hypertension” (Pfizer Inc, priority 2003, published 2004).
Ends that are not written are not given here.

Columns and labels:
[1] = target: GPR54 (Homo sapiens, UniProt Q969F8); settings: cited from earlier work
[2] = test system: rat aortic rings; assay: Isolated rat aorta assay (organ bath, aortic rings); settings: organ bath system
Protocol: Segments of endothelium intact rat aorta were trim cleaned of fat and surrounding connective tissues and aortic rings strung up in 5 ml organ baths and perfused with oxygenated modified Kreb's solution (118 mM NaCl, 4.7 mM KCl, 25 mM NaHCO3, 11.1 mM glucose, 1.18 mM KH2PO4, 1.18 mM MgSO4 and 2mM CaCl2). Following an equilibration period of approximately 60 min, tissues were challenged with 1 μM phenylephrine (PE). Following a stable response tissues were washed and the above dose of PE was repeated. Once the tissues reached a maximum response 1 μM acetylcholine was administered to determine the percentage of endothelium dependent relaxation. Tissues were washed and cumulative concentration response curves were constructed to Kiss-1 and urotensin-II for a comparison. […] The potential for Kiss-1 mediated vasorelaxation was assessed in aortic rings pre-constricted with 300 nM noradrenaline along with appropriate control tissues with no drug. Drug potency (EC50) and efficacy (Emax) was determined.
Rat aortic rings are set up as described before for measuring Kiss-1 potency and efficacy in a 5 ml organ bath set-up. The potency of antagonist can be determined by constructing a dose response curve to Kiss-1 in the presence of a single concentration of Kiss-1 antagonist or vehicle. […]

[3] = test system: CHO cells transfected with GPR54; settings: cited from earlier work

Sequence of GPR54 (Q969F8 whole entry, species assumed): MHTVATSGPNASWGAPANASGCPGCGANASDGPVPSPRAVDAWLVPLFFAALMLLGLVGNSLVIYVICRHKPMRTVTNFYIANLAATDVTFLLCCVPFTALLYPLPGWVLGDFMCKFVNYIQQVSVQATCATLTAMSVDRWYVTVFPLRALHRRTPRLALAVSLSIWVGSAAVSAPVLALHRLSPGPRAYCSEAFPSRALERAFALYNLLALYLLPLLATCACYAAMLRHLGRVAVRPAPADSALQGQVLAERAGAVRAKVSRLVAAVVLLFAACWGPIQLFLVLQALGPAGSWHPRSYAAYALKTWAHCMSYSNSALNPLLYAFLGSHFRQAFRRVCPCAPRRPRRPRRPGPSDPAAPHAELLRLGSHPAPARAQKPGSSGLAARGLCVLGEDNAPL

Substance	agonist activity at GPR54 [1]	vasoconstriction [2]	migration, chemotaxis and invasion [3]
Kiss-1 (40-54): C-terminal fragment of Kiss-1 (KDLPNYNWNSFGLRF-NH2; UniProt Q15726 107-121, looked up, fragment)	potent agonists	–	–
Kiss-1 (45-54): C-terminal fragment of Kiss-1, derived from the 54 amino acid Kiss peptide sequence; Kiss-1 receptor agonist (YNWNSFGLRF-NH2; UniProt Q15726 112-121, looked up, fragment)	–	vasoconstriction	–
Kiss-1: carboxy-terminally amidated peptide with 54 amino acid residues, also called metastin, isolated from human placenta (GTSLSPPPESSGSPQQPGLSAPHSRQIPAPQGAVLVQREKDLPNYNWNSFGLRF-NH2; UniProt Q15726 68-121, looked up)	potent agonists	potent vasoconstrictor	inhibits migration, chemotaxis and invasion
